This passage reports T/C results from PubChem BioAssay AID256 (DTP/NCI, 2004).

In this assay the test system is CD2F1 mice, L1210 leukemia ip, survival T/C. The assay is described as follows: NCI In Vivo Anticancer Drug Screen. Data for tumor model L1210 Leukemia (intraperitoneal) in CD2F1 (CDF1) mice. As to conditions: higher = longer survival. A digest of the protocol:
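Read-out first: treated-group measurement over vehicle-control measurement, expressed as a ratio. Animals bore a transplanted tumor line and were dosed with compound or vehicle.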

Where [1] appears, read: endpoint: mean survival time, dose: 100.0 mg/kg/injection, schedule: Q04DX002 (ip), vehicle: saline with Tween-80.
Where [2] appears, read: endpoint: mean survival time, dose: 50.0 mg/kg/injection, schedule: Q01DX009 (ip), vehicle: saline with Tween-80.
[3] abbreviates: endpoint: mean survival time, dose: 100.0 mg/kg/injection, schedule: Q01DX009 (ip), vehicle: saline with Tween-80.
[4] abbreviates: endpoint: mean survival time, dose: 200.0 mg/kg/injection, schedule: Q01DX009 (ip), vehicle: saline with Tween-80.
The mark [5] stands for this setting: endpoint: mean survival time, dose: 100.0 mg/kg/injection, schedule: Q04DX003 (ip), vehicle: saline with Tween-80.
The mark [6] stands for this setting: endpoint: mean survival time, dose: 200.0 mg/kg/injection, schedule: Q04DX003 (ip), vehicle: saline with Tween-80.
Setting [7] is: endpoint: mean survival time, dose: 400.0 mg/kg/injection, schedule: Q01DX009 (ip), vehicle: saline with Tween-80.
The mark [8] stands for this setting: endpoint: mean survival time, dose: 400.0 mg/kg/injection, schedule: Q04DX003 (ip), vehicle: saline with Tween-80.
Setting [9] is: endpoint: mean survival time, dose: 100.0 mg/kg/injection, schedule: Q01DX001 (ip), vehicle: saline.
Setting [10] is: endpoint: mean survival time, dose: 200.0 mg/kg/injection, schedule: Q01DX001 (ip), vehicle: saline.
Setting [11] is: endpoint: mean survival time, dose: 400.0 mg/kg/injection, schedule: Q01DX001 (ip), vehicle: saline.
[12] abbreviates: endpoint: mean survival time, dose: 100.0 mg/kg/injection, schedule: Q01DX001 (ip), vehicle: saline with Tween-80.
The mark [13] stands for this setting: endpoint: mean survival time, dose: 200.0 mg/kg/injection, schedule: Q01DX001 (ip), vehicle: saline with Tween-80.
Where [14] appears, read: endpoint: mean survival time, dose: 400.0 mg/kg/injection, schedule: Q01DX001 (ip), vehicle: saline with Tween-80.

Structures are written as SMILES. Inconclusive results and toxic doses are left out.

For the molecule `O=C(O)C(=O)O.O=N[O-].O=N[O-].[Co+2].[NH2-].[NH2-]`, the T/C runs as follows: (endpoint: mean survival time, dose: 25.0 mg/kg/injection, schedule: Q04DX002 (ip), vehicle: saline with Tween-80) 93 % of control; (endpoint: mean survival time, dose: 50.0 mg/kg/injection, schedule: Q04DX002 (ip), vehicle: saline with Tween-80) 117 % of control; under setting [1], 98 % of control.
Turning to `COc1cc(C=C(C(C)=O)C(C)=O)ccc1O`, the T/C by setting is: under setting [2], 98 % of control; under setting [3], 101 % of control; under setting [4], 98 % of control.
Turning to `CCCCCCCCCCCCCCCCCC(=O)OC1C(CO)OC2C1Oc1nc(=N)ccn12` (configuration not stated), the T/C runs as follows: (endpoint: mean survival time, dose: 12.5 mg/kg/injection, schedule: Q01DX009 (ip), vehicle: other) 167 % of control; (endpoint: mean survival time, dose: 25.0 mg/kg/injection, schedule: Q01DX009 (ip), vehicle: other) 229 % of control; (endpoint: mean survival time, dose: 50.0 mg/kg/injection, schedule: Q01DX009 (ip), vehicle: other) 301 % of control; (endpoint: mean survival time, dose: 100.0 mg/kg/injection, schedule: Q01DX009 (ip), vehicle: other) 280 % of control; (endpoint: mean survival time, dose: 200.0 mg/kg/injection, schedule: Q01DX009 (ip), vehicle: other) 96 % of control.
For the molecule `O=C(OC1COC(OC(=O)c2ccccc2)C(OC(=O)c2ccccc2)C1OC(=O)c1ccccc1)c1ccccc1` (configuration not stated), the T/C is, setting by setting: under setting [3], 97 % of control; under setting [5], 101 % of control; under setting [4], 95 % of control; under setting [6], 86 % of control; under setting [7], 97 % of control; under setting [8], 95 % of control.
On to `CCOc1cc(N)nc2c1nnn2C1OC(CO)C(O)C1O` (configuration not stated), for which the T/C is, setting by setting: (endpoint: mean survival time, dose: 6.25 mg/kg/injection, schedule: Q01DX005 (ip), vehicle: other) 107 % of control; (endpoint: mean survival time, dose: 12.5 mg/kg/injection, schedule: Q01DX005 (ip), vehicle: other) 98 % of control; (endpoint: mean survival time, dose: 25.0 mg/kg/injection, schedule: Q01DX005 (ip), vehicle: other) 101 % of control; (endpoint: mean survival time, dose: 50.0 mg/kg/injection, schedule: Q01DX005 (ip), vehicle: other) 98 % of control; (endpoint: mean survival time, dose: 100.0 mg/kg/injection, schedule: Q01DX005 (ip), vehicle: other) 101 % of control; (endpoint: mean survival time, dose: 200.0 mg/kg/injection, schedule: Q01DX005 (ip), vehicle: other) 98 % of control.
As to `N#CN1CCC2CC3(CCC2C1)OCCO3` (configuration not stated), the T/C is, setting by setting: under setting [9], 96 % of control; under setting [10], 91 % of control; under setting [11], 96 % of control.
On to `Cc1nn(-c2ccc(Cl)cc2)c(C)c1N=O`, for which, under setting [12], the T/C was 104 % of control.
In the case of `Nc1nc(=O)n(CCCOc2ccccc2NC(=O)Nc2cccc(S(=O)(=O)F)c2)cc1-c1ccc(Cl)c(Cl)c1`, the T/C reads like this: (endpoint: mean survival time, dose: 75.0 mg/kg/injection, schedule: Q01DX001 (ip), vehicle: saline with Tween-80) 95 % of control; (endpoint: mean survival time, dose: 150.0 mg/kg/injection, schedule: Q01DX001 (ip), vehicle: saline with Tween-80) 95 % of control; (endpoint: mean survival time, dose: 300.0 mg/kg/injection, schedule: Q01DX001 (ip), vehicle: saline with Tween-80) 101 % of control.
Regarding `Cn1c(=O)c2c(n(C)c1=O)n1cnnc1n2C`, the T/C was 95 % of control (endpoint: mean survival time, dose: 12.5 mg/kg/injection, schedule: Q01DX005 (ip), vehicle: distilled water + Tween-80); 100 % of control (endpoint: mean survival time, dose: 25.0 mg/kg/injection, schedule: Q01DX005 (ip), vehicle: distilled water + Tween-80); 100 % of control (endpoint: mean survival time, dose: 50.0 mg/kg/injection, schedule: Q01DX005 (ip), vehicle: distilled water + Tween-80); 100 % of control (endpoint: mean survival time, dose: 100.0 mg/kg/injection, schedule: Q01DX005 (ip), vehicle: distilled water + Tween-80); 89 % of control (endpoint: mean survival time, dose: 200.0 mg/kg/injection, schedule: Q01DX005 (ip), vehicle: distilled water + Tween-80).
As for `O=C(O)C1C2c3ccccc3C(C1C(=O)O)[n+]1ccccc12` (configuration not stated), the T/C runs as follows: under setting [9], 96 % of control; under setting [10], 102 % of control; under setting [11], 93 % of control.
Regarding `O=C1OC(=O)[C@H]2[C@@H]1[C@H]1C=C[C@@H]2OC1=O`, the T/C (endpoint: median survival time, dose: 12.5 mg/kg/injection, schedule: Q01DX009 (ip), vehicle: saline) was 98 % of control; the T/C (endpoint: median survival time, dose: 25.0 mg/kg/injection, schedule: Q01DX009 (ip), vehicle: saline) is 104 % of control; the T/C (endpoint: median survival time, dose: 50.0 mg/kg/injection, schedule: Q01DX009 (ip), vehicle: saline) was 104 % of control; the T/C (endpoint: median survival time, dose: 100.0 mg/kg/injection, schedule: Q01DX009 (ip), vehicle: saline) was 104 % of control; the T/C (endpoint: median survival time, dose: 200.0 mg/kg/injection, schedule: Q01DX009 (ip), vehicle: saline) was 96 % of control.
For `COC(=O)c1ccc(N=NN(C)COC(C)=O)cc1`, the T/C by setting is: (endpoint: median survival time, dose: 15.0 mg/kg/injection, schedule: Q01DX005 (ip), vehicle: Klucel (hydroxypropylcellulose) (HPC)) 109 % of control; (endpoint: median survival time, dose: 30.0 mg/kg/injection, schedule: Q01DX005 (ip), vehicle: Klucel (hydroxypropylcellulose) (HPC)) 113 % of control; (endpoint: median survival time, dose: 60.0 mg/kg/injection, schedule: Q01DX005 (ip), vehicle: Klucel (hydroxypropylcellulose) (HPC)) 114 % of control; (endpoint: median survival time, dose: 240.0 mg/kg/injection, schedule: Q01DX005 (ip), vehicle: Klucel (hydroxypropylcellulose) (HPC)) 182 % of control.
As to `CC(=O)CC(=O)C(C)(C)C(C)=O`, the T/C was 98 % of control under setting [12]; 97 % of control (endpoint: mean survival time, dose: 100.0 mg/kg/injection, schedule: Q01DX009 (ip), vehicle: saline sonified); 117 % of control under setting [1]; 104 % of control under setting [13]; 105 % of control (endpoint: mean survival time, dose: 200.0 mg/kg/injection, schedule: Q01DX009 (ip), vehicle: saline sonified); 102 % of control (endpoint: mean survival time, dose: 200.0 mg/kg/injection, schedule: Q04DX002 (ip), vehicle: saline with Tween-80). The T/C is, setting by setting: under setting [14], 101 % of control; (endpoint: mean survival time, dose: 400.0 mg/kg/injection, schedule: Q01DX009 (ip), vehicle: saline sonified) 100 % of control; (endpoint: mean survival time, dose: 400.0 mg/kg/injection, schedule: Q04DX002 (ip), vehicle: saline with Tween-80) 98 % of control.
Turning to `CNC(=O)NNC(=O)c1ccccc1Cl`, the T/C runs as follows: under setting [3], 88 % of control; under setting [4], 108 % of control; under setting [7], 98 % of control.
For the molecule `Cn1c(=S)sc2nc3ccccc3n2c1=S`, the T/C by setting is: (endpoint: median survival time, dose: 15.0 mg/kg/injection, schedule: Q01DX005 (ip), vehicle: saline with Tween-80) 103 % of control; (endpoint: median survival time, dose: 30.0 mg/kg/injection, schedule: Q01DX005 (ip), vehicle: saline with Tween-80) 107 % of control; (endpoint: median survival time, dose: 60.0 mg/kg/injection, schedule: Q01DX005 (ip), vehicle: saline with Tween-80) 111 % of control; (endpoint: median survival time, dose: 120.0 mg/kg/injection, schedule: Q01DX005 (ip), vehicle: saline with Tween-80) 107 % of control; (endpoint: median survival time, dose: 240.0 mg/kg/injection, schedule: Q01DX005 (ip), vehicle: saline with Tween-80) 107 % of control.
For the molecule `ClCCCCC(Cl)(Cl)Cl`, the T/C was 101 % of control (endpoint: mean survival time, dose: 100.0 mg/kg/injection, schedule: Q01DX001 (ip), vehicle: Klucel (hydroxypropylcellulose) (HPC)); 98 % of control (endpoint: mean survival time, dose: 200.0 mg/kg/injection, schedule: Q01DX001 (ip), vehicle: Klucel (hydroxypropylcellulose) (HPC)); 93 % of control (endpoint: mean survival time, dose: 400.0 mg/kg/injection, schedule: Q01DX001 (ip), vehicle: Klucel (hydroxypropylcellulose) (HPC)).
With `Cc1ccc(NC(=O)N2CCCCC2C)cc1[N+](=O)[O-]` (configuration not stated), the T/C by setting is: under setting [2], 102 % of control; under setting [3], 94 % of control; under setting [4], 102 % of control.
Regarding `O=c1cnn(C2OC(CO)C(O)C2O)c(=S)[nH]1` (configuration not stated), the T/C was 123 % of control under setting [3]; 102 % of control (endpoint: mean survival time, dose: 100.0 mg/kg/injection, schedule: Q04DX003 (ip), vehicle: saline sonified); 107 % of control under setting [4]; 104 % of control (endpoint: mean survival time, dose: 200.0 mg/kg/injection, schedule: Q04DX003 (ip), vehicle: saline sonified); 112 % of control under setting [7]; 96 % of control (endpoint: mean survival time, dose: 400.0 mg/kg/injection, schedule: Q04DX003 (ip), vehicle: saline sonified).
With `Cc1cc(Br)cnc1Cl`, the T/C is 97 % of control under setting [12]; 92 % of control under setting [5]; 106 % of control under setting [13]; 97 % of control under setting [6]; 101 % of control under setting [14]; 96 % of control under setting [8].
